# From ChEMBL document CHEMBL1201862, “PubChem BioAssay data set” (2004)
#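 Method: 48-hour compound exposure of cells in 96-well plates, five concentrations, linear interpolation of endpoints. The concentration for 50% growth inhibition is given as GI50.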 Calls of active or inactive are those of the source. Cut-off read from the data, not from the text of the source: active = GI50 up to about 1.1 µM and inactive = higher.
# Columns and labels:
# Test in all cases: growth of human tumour cells (NCI), 48 h
# HCT-15 = test system: HCT-15
# MOLT-4 = test system: MOLT-4
# UACC-62 = test system: UACC-62
# EKVX = test system: EKVX
# OVCAR-5 = test system: OVCAR-5
# SK-MEL-5 = test system: SK-MEL-5
# DU-145 = test system: DU-145
# NCI-H460 = test system: NCI-H460
# TK-10 = test system: TK-10
# LOX IMVI = test system: LOX IMVI
# SF-295 = test system: SF-295
# K562 = test system: K562
# T47D = test system: T47D
# SF-268 = test system: SF-268
# OVCAR-4 = test system: OVCAR-4
# CCRF-CEM = test system: CCRF-CEM
# 786-0 = test system: 786-0
# HCC 2998 = test system: HCC 2998
# UACC-257 = test system: UACC-257
Structure (SMILES),GI50 (HCT-15) [µM],GI50 (MOLT-4),GI50 (UACC-62),GI50 (EKVX),GI50 (OVCAR-5),GI50 (SK-MEL-5),GI50 (DU-145),GI50 (NCI-H460),GI50 (TK-10),GI50 (LOX IMVI),GI50 (SF-295),GI50 (K562),GI50 (T47D),GI50 (SF-268),GI50 (OVCAR-4),GI50 (CCRF-CEM),GI50 (786-0),GI50 (HCC 2998),GI50 (UACC-257)
CN(Cc1cc(Br)cc(Br)c1O)Cc1c(O)ccc2ccccc12,30.3,10.4 µM (inactive),19.7 µM (inactive),16.9 µM (inactive),17.6 µM (inactive),17.4 µM (inactive),21.1 µM (inactive),19.1 µM (inactive),17.4 µM (inactive),19.8 µM (inactive),21.5 µM (inactive),19.8 µM (inactive),21.9 µM (inactive),24.9 µM (inactive),16.5 µM (inactive),20.7 µM (inactive),16.7 µM (inactive),17.1 µM (inactive),17.3 µM (inactive)
c1cc(CSc2ncnc3[nH]cnc23)ccn1,> 100,34.7 µM (inactive),37.4 µM (inactive),> 100 µM (inactive),> 100 µM (inactive),> 100 µM (inactive),65.3 µM (inactive),> 100 µM (inactive),59.8 µM (inactive),28.2 µM (inactive),> 100 µM (inactive),27.8 µM (inactive),76.6 µM (inactive),92.9 µM (inactive),> 100 µM (inactive),66.8 µM (inactive),39 µM (inactive),92.5 µM (inactive),> 100 µM (inactive)
CC1OC(O[C@H]2C3C=CO[C@@H](OC4OC(CO)C(O)C(O)C4O)C3[C@@]3(COC(=O)/C=C/c4ccccc4)O[C@@H]23)C(O)C(O)C1O (stereo not given in full),> 100,> 100 µM (inactive),> 100 µM (inactive),> 100 µM (inactive),> 100 µM (inactive),> 100 µM (inactive),> 100 µM (inactive),> 100 µM (inactive),> 100 µM (inactive),> 100 µM (inactive),> 100 µM (inactive),> 100 µM (inactive),> 100 µM (inactive),> 100 µM (inactive),> 100 µM (inactive),> 100 µM (inactive),> 100 µM (inactive),> 100 µM (inactive),> 100 µM (inactive)
O=C1N(c2ccccc2)C(=S)/C(=C/c2ccc(Cl)cc2)N1c1ccc(Cl)cc1,26.9,0.923 µM (active),15.8 µM (inactive),38.5 µM (inactive),78.3 µM (inactive),46.6 µM (inactive),53 µM (inactive),> 100 µM (inactive),26.7 µM (inactive),22.2 µM (inactive),38.4 µM (inactive),41.9 µM (inactive),63.8 µM (inactive),46.9 µM (inactive),28.2 µM (inactive),18.1 µM (inactive),23.2 µM (inactive),> 100 µM (inactive),55.8 µM (inactive)
CC(=O)[C@]1(C)[C@H](C)O[C@](C)(CO)[C@H]1O[Si](C)(C)c1ccccc1,23,34.6 µM (inactive),97.9 µM (inactive),46.3 µM (inactive),> 100 µM (inactive),33.9 µM (inactive),57.1 µM (inactive),51.2 µM (inactive),82.4 µM (inactive),20.4 µM (inactive),53 µM (inactive),32.8 µM (inactive),17.8 µM (inactive),54.5 µM (inactive),30.4 µM (inactive),28.4 µM (inactive),81.5 µM (inactive),31.5 µM (inactive),23 µM (inactive)
C=CC(C)CCC(C/C=C(\C)CCC=C(C)C)C(=C)CCCC(C)C (stereo not given),> 100,> 100 µM (inactive),> 100 µM (inactive),> 100 µM (inactive),> 100 µM (inactive),> 100 µM (inactive),> 100 µM (inactive),> 100 µM (inactive),> 100 µM (inactive),> 100 µM (inactive),> 100 µM (inactive),> 100 µM (inactive),> 100 µM (inactive),> 100 µM (inactive),> 100 µM (inactive),> 100 µM (inactive),> 100 µM (inactive),> 100 µM (inactive),> 100 µM (inactive)
Fc1cc(C2=C[C@H](c3ccc4c(c3)OCO4)NC(=S)N2)c(Cl)cc1Cl,37.4,23.4 µM (inactive),35.9 µM (inactive),22.2 µM (inactive),44.1 µM (inactive),10.3 µM (inactive),49 µM (inactive),25.5 µM (inactive),28.8 µM (inactive),37.2 µM (inactive),31.9 µM (inactive),32.1 µM (inactive),20.2 µM (inactive),45.7 µM (inactive),38.1 µM (inactive),21.8 µM (inactive),39.9 µM (inactive),23.2 µM (inactive),26.3 µM (inactive)
CC1=NN(C2=NS(=O)(=O)c3ccccc3N2C)C(=O)C1,> 100,> 100 µM (inactive),> 100 µM (inactive),> 100 µM (inactive),> 100 µM (inactive),> 100 µM (inactive),> 100 µM (inactive),> 100 µM (inactive),> 100 µM (inactive),> 100 µM (inactive),> 100 µM (inactive),> 100 µM (inactive),> 100 µM (inactive),> 100 µM (inactive),> 100 µM (inactive),> 100 µM (inactive),> 100 µM (inactive),> 100 µM (inactive),> 100 µM (inactive)
N#Cc1nc(-c2ccccn2)c(-c2ccccn2)nc1C#N,0.682,4.19 µM (inactive),0.47 µM (active),3.15 µM (inactive),3.32 µM (inactive),1.85 µM (inactive),2.32 µM (inactive),0.47 µM (active),1.82 µM (inactive),1.03 µM (active),0.811 µM (active),5.85 µM (inactive),1.69 µM (inactive),1.25 µM (inactive),1.79 µM (inactive),2.69 µM (inactive),0.515 µM (active),3.66 µM (inactive),3.65 µM (inactive)
CNc1ccc([S+]([O-])Nc2ccccc2)cc1 (stereo not given),43.9,52.6 µM (inactive),23.4 µM (inactive),30.5 µM (inactive),> 100 µM (inactive),25.8 µM (inactive),> 100 µM (inactive),55.8 µM (inactive),> 100 µM (inactive),41.9 µM (inactive),41.5 µM (inactive),34.8 µM (inactive),19.5 µM (inactive),25.9 µM (inactive),94.2 µM (inactive),> 100 µM (inactive),53.8 µM (inactive),23.1 µM (inactive),41.1 µM (inactive)
Nc1nc(Cl)c(N)c(NCC2(CO)CC(OCc3ccccc3)C2)n1 (stereo not given),> 100,> 100 µM (inactive),> 100 µM (inactive),> 100 µM (inactive),> 100 µM (inactive),20.4 µM (inactive),> 100 µM (inactive),> 100 µM (inactive),44 µM (inactive),9.35 µM (inactive),> 100 µM (inactive),74.6 µM (inactive),23.7 µM (inactive),> 100 µM (inactive),> 100 µM (inactive),> 100 µM (inactive),> 100 µM (inactive),82 µM (inactive),48.4 µM (inactive)
O=C1O/C(=C(/Cl)c2c3ccccc3cc3ccccc23)c2ccccc21,20.6,7.53 µM (inactive),28.6 µM (inactive),26.4 µM (inactive),33.2 µM (inactive),15.4 µM (inactive),45.4 µM (inactive),26.5 µM (inactive),32.8 µM (inactive),3.33 µM (inactive),47 µM (inactive),13.8 µM (inactive),80.5 µM (inactive),30.5 µM (inactive),17.2 µM (inactive),4 µM (inactive),14.4 µM (inactive),30.9 µM (inactive),33.2 µM (inactive)
O=C1/C(=C/Cc2ccco2)N=C(c2ccccc2)N1c1nc2c(Cl)cc(Cl)cc2s1,27.9,1.02 µM (active),27.5 µM (inactive),15 µM (inactive),52.2 µM (inactive),22.5 µM (inactive),27.4 µM (inactive),32.2 µM (inactive),42.7 µM (inactive),25.4 µM (inactive),32.1 µM (inactive),25.1 µM (inactive),16.8 µM (inactive),40.3 µM (inactive),21.3 µM (inactive),17.9 µM (inactive),44.8 µM (inactive),31.7 µM (inactive),34.4 µM (inactive)
O=c1[nH]nc(Cc2ccccc2)n1C1CC1,> 100,> 100 µM (inactive),> 100 µM (inactive),> 100 µM (inactive),> 100 µM (inactive),> 100 µM (inactive),> 100 µM (inactive),> 100 µM (inactive),> 100 µM (inactive),> 100 µM (inactive),> 100 µM (inactive),> 100 µM (inactive),> 100 µM (inactive),> 100 µM (inactive),> 100 µM (inactive),> 100 µM (inactive),> 100 µM (inactive),> 100 µM (inactive),> 100 µM (inactive)
Cn1c2ccccc2c(=NNc2ccccc2C(=O)O)c2ccccc21,7.87,10.9 µM (inactive),19.5 µM (inactive),11.8 µM (inactive),30.3 µM (inactive),13.7 µM (inactive),27.5 µM (inactive),13.2 µM (inactive),32.1 µM (inactive),11.8 µM (inactive),17.6 µM (inactive),8.97 µM (inactive),20.3 µM (inactive),15.8 µM (inactive),13.7 µM (inactive),13.2 µM (inactive),27.5 µM (inactive),19.7 µM (inactive),23.8 µM (inactive)
